{
  "source": "patent US6486203B1",
  "about": "“Treating inflammatory diseases of the head and neck with cyclooxygenase-2 inhibitors” (Cornell Research Foundation, Inc., priority 1998, dated 2002)",
  "assay_type_in_all_cases": "in vivo, human",
  "key": {"tonsillitis": {"test_system": "tonsillitis", "experiment": "Treatment of a patient with tonsillitis (Example I)", "conditions": "person with tonsillitis; 200 mg orally twice a day, together with amoxicillin; after taking one dose", "method": "A person has symptoms of a sore throat and fever. They are evaluated by a physician who notes inflamed tonsils and diagnoses tonsillitis. The patient is treated with amoxicillin 500 mg orally every eight hours for ten days. Additionally, they are given Celebrex (celecoxib) 200 mg orally twice a day for seven days."}, "viral pharyngitis": {"test_system": "viral pharyngitis", "experiment": "Treatment of a patient with viral pharyngitis with lozenges (Example II)", "conditions": "person with viral pharyngitis; lozenges containing 100 mg four times a day", "method": "A person has symptoms of a sore throat. They are evaluated by their physician who detects an erythematous pharynx. A diagnosis of viral pharyngitis is made."}, "sinusitis": {"test_system": "sinusitis", "experiment": "Treatment of a patient with sinusitis (Example III)", "conditions": "person with sinusitis; 200 mg orally twice a day, together with amoxicillin; after taking one dose", "method": "A person presents to their physician complaining of fever and headache. On physical examination, they have tenderness over their maxillary sinus. A diagnosis of sinusitis is made. The patient is treated with amoxicillin 500 mg orally every eight hours for ten days. They are also given Celebrex 200 mg orally twice a day for seven days."}, "sore throat": {"test_system": "sore throat", "experiment": "Treatment of sore throat with resveratrol lozenges (Example IV)", "conditions": "person with sore throat; lozenges of 1 gram, four per day for two days", "source_text": "A person has symptoms of a sore throat."}, "periodontitis": {"test_system": "periodontitis", "experiment": "Treatment of a patient with periodontitis with resveratrol lozenges (Example V)", "conditions": "tobacco-smoking person with periodontitis; lozenges of 1 gram twice a day; four months later", "source_text": "A […] tobacco-smoking […] is referred to a periodontist for bleeding gums and is diagnosed with periodontitis."}},
  "data": [
    {"smiles": "Cc1ccc(-c2cc(C(F)(F)F)nn2-c2ccc(S(N)(=O)=O)cc2)cc1", "note": "[Celebrex, 4-[5-(4-Methylphenyl)-3-(trifluoromethyl)-1H-pyrazol-1-yl]benzenesulfonamide]", "values": [
      {"measurement": "improvement in throat pain", "setting": "tonsillitis", "value": "marked improvement in their throat pain"},
      {"measurement": "resolution of sore throat", "setting": "viral pharyngitis", "value": "complete resolution of their sore throat within two days"},
      {"measurement": "improvement in sinus pain", "setting": "sinusitis", "value": "marked improvement in their sinus pain"}
    ]},
    {"smiles": "Oc1ccc(/C=C/c2cc(O)cc(O)c2)cc1", "note": "[resveratrol]", "values": [
      {"measurement": "relief of throat discomfort", "setting": "sore throat", "value": "rapid relief of their throat discomfort"},
      {"measurement": "bleeding in gums", "setting": "periodontitis", "value": "markedly decreased bleeding in their gums"},
      {"measurement": "periodontal disease on examination", "setting": "periodontitis", "value": "improvement in periodontal disease is detected on examination"}
    ]}
  ]
}
